Laboratory results taken from patent US10941121B2 (AZIENDA OSPEDALIERA UNIVERSITARIA SENESE, priority 2015, dated 2021).
Where two headings read alike, the source gives them in different places.

Columns and labels:
ATPase DDX3 = molecular target: T1, ATPase DDX3 (Homo sapiens, UniProt O00571); experiment: Selectivity of 20a: ATPase DDX3; format: biochemical; settings: >200 = less than 20% of inhibition at 200 μM, the highest concentration tested
T1 construct: made in house; host or cells: E. coli

NS3 (DENV) = NS3 (DENV) (Orthoflavivirus denguei (Dengue virus), UniProt P29990); experiment: Selectivity of 20a: NS3 (DENV); format: biochemical
[1] = Cytotoxicity, MTT method in LUNET cells; format: cell-based; settings: human; MMT method in LUNET cells; read-out: CC50 (μM) non-infected cells
Method: Toxicity (CC50) was analysed in the Lunet/HuH7 cells by the addition of 10 μL of MTT (3-(4,5-dimethylthiazol-2-yl)-2,5-diphenyltetrazolium bromide) per well. After 4 h of incubation at 37° C. in a humidified atmosphere with 5% CO2, the amount of formazan produced was quantified spectrophotometrically at 550/620 nm (C. Pannecouque et al, Nature protocol 2008; 3 (3): 427-434). […] These assays were done in duplicate.

[2] = Cytotoxicity in PBMC, CellTiter 96 MTS viability assay; format: cell-based; settings: human, human primary PBMCs
[3] = system: HIV-1 wild-type reference strain NL4-3; experiment: HIV-1 phenotypic assay, MT-2 cells then TZM-bl cells, luciferase; format: cell-based; settings: Human immunodeficiency virus 1, NL43
[4] = system: HIV-1 strains carrying resistance mutations; experiment: microbe, parasite or virus in culture; format: cell-based; settings: for IC50: Human immunodeficiency virus 1, TZM-bl
[5] = Parallel Artificial Membrane Permeability Assay (PAMPA); format: in vitro ADME
Water Solubility Assay = format: physicochemical; settings: thermodynamic from solid
DDX3 Helicase = DDX3 Helicase (Homo sapiens, UniProt O00571); settings: read-out: ID50 (μM) against DDX3 Helicase; n.a. = compound not active
[6] = Cytotoxicity in Huh7 cells, nuclei counts; settings: human
[7] = Cytotoxicity in the JEV cell culture system; settings: hamster
[8] = system: Hepatitis C Virus (HCV) replicon system; experiment: HCV replicon system, luciferase method in LucUbiNeo-ET cells
HIV (PBMC) = experiment: HIV infectious cell culture system in PBMC, HIV-1 RNA in supernatant; settings: Human immunodeficiency virus 1, PBMC, 72 h, read-out: EC50 HIV (PBMC) 72 h
JEV strain (NJ2008) = experiment: JEV infectious cell culture system, plaque formation assay in BHK-21 cells; settings: Japanese encephalitis virus, BHK-21, read-out: JEV EC50

Chain of DDX3 Helicase (O00571 whole entry): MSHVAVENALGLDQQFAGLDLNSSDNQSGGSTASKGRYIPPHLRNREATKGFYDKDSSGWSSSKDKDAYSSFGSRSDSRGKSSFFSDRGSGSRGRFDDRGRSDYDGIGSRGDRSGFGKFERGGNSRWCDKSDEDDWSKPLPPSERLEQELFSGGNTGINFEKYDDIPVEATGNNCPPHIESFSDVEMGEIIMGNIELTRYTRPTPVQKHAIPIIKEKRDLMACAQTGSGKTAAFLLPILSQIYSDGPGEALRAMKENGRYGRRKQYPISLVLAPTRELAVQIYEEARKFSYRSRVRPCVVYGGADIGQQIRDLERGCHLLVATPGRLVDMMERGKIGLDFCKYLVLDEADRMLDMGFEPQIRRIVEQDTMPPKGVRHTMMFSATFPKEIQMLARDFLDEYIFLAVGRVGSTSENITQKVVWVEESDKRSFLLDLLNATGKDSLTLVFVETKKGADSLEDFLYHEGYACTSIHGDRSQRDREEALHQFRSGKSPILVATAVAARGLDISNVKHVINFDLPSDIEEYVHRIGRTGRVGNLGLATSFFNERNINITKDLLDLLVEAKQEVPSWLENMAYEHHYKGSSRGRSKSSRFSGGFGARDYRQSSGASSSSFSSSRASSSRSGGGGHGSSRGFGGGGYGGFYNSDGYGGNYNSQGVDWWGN
T1 sequence (O00571 whole entry): as above
Chain of NS3 (DENV) (P29990 1476-2093): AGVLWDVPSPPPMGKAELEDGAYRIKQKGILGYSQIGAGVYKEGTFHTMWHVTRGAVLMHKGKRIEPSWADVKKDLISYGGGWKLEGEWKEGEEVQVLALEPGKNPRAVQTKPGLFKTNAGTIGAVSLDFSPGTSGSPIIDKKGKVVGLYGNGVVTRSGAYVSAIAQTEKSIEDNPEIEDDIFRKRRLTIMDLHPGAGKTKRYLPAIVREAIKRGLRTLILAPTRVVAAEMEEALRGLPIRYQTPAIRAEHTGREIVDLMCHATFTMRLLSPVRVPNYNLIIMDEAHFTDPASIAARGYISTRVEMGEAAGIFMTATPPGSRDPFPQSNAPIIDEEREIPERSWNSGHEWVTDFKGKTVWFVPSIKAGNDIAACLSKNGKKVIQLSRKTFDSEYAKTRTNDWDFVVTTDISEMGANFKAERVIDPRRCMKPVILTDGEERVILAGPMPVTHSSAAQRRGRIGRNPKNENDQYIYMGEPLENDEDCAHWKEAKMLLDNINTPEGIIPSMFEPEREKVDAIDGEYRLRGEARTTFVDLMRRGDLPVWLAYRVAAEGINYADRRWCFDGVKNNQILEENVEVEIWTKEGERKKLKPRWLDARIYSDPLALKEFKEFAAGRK

SMILES: CCCCc1cn(-c2ccc(NC(=O)Nc3ccccc3C)cc2)nn1 [Compound 20a, 1-(4-(4-butyl-1H-1,2,3-triazol-1-yl)phenyl)-3-o-tolylurea]
- IC50 (ATPase DDX3): > 200 µM
- IC50 (NS3 (DENV)): > 200 µM
- CC50 [1]: 49.8 µM
- CC50 at 24 h ([2]; 24 h): > 1000 µM
- CC50 at 48 h ([2]; 48 h): > 1000 µM
- CC50 at 72 h ([2]; 72 h): > 1000 µM
- EC50 ([3]; first cycle in MT-2 cells, additional round in TZM-bl cells): 1.1 µM
- IC50 ([3]; strain 114, NL4-3 wild type, read-out: IC50 [95% CI] (μM), HIV-1 strain 114): 1.11 µM
- IC50 ([4]; read-out: IC50 [95% CI] (μM), HIV-1 strain 7404): 0.22 µM
- IC50 ([4]; read-out: IC50 [95% CI] (μM), HIV-1 strain 7406): 0.33 µM
- IC50 ([4]; read-out: IC50 [95% CI] (μM), HIV-1 strain 11808): 0.23 µM
- IC50 ([4]; read-out: IC50 [95% CI] (μM), HIV-1 strain 11845): 0.37 µM
- IC50 ([4]; read-out: IC50 [95% CI] (μM), HIV-1 strain 12227): 0.94 µM
- IC50 ([4]; read-out: IC50 [95% CI] (μM), HIV-1 strain 12235): 0.36 µM
- Fold change, strain 7404 ([4]; resistant strain IC50 to wild type strain IC50 ratio, 7404 NRTIs): 0.2
- Fold change, strain 7406 ([4]; resistant strain IC50 to wild type strain IC50 ratio, 7406 NRTIs): 0.3
- Fold change, strain 11808 ([4]; resistant strain IC50 to wild type strain IC50 ratio, 11808 PIs): 0.2
- Fold change, strain 11845 ([4]; resistant strain IC50 to wild type strain IC50 ratio, 11845 INIs): 0.3
- Fold change, strain 12227 ([4]; resistant strain IC50 to wild type strain IC50 ratio, 12227 NNRTIs): 0.8
- Fold change, strain 12235 ([4]; resistant strain IC50 to wild type strain IC50 ratio, 12235 NNRTIs): 0.3
- activity against resistant HIV viruses, in words ([4]; viruses carrying resistance mutations): retained full activity
- Papp at 5 h, 0.5 mM ([5]; PAMPA, phosphatidylcholine in dodecane, pH 7.4, 5 h, room temperature, read-out: PAMPA Papp *10^−6 (cm/s) GI): 28.6 nm/s
- PAMPA membrane retention (RM %) ([5]; value in brackets in the PAMPA cell): 19.1%
- solubility (Water Solubility Assay; experimental aqueous solubility, read-out: LogS (converted)): 0.0891 µM
- solubility (Water Solubility Assay; room temperature, 24-36 h, read-out: Aq. Solub.): 0.135 µg/mL
- IC50 (DDX3 Helicase): 0.3 µM
- CC50 at 48 h ([6]; DENV CC50, Huh7 cells, DENV experiment): > 787 µM
- CC50 at 48 h ([6]; WNV CC50, Huh7 cells, WNV experiment): > 500 µM
- CC50 [7]: > 50 µM
- activity against HCV, in words [8]: best activity
- EC50 ([8]; Hepatitis C virus, 48 h, read-out: EC50 (μM) HCV replicon system): 0.97 µM
- EC50 (HIV (PBMC)): 30 µM
- EC50 (JEV strain (NJ2008)): 20 µM
